Data reported in article PMC10401570, “Programmable Monodisperse Glyco-Multivalency Using Self-Assembled Coordination Cages as Scaffolds” (ACS Applied Materials & Interfaces, 2023).

Target: Jacalin (Artocarpus integer, UniProt P18670)
Assay: competition turbidimetry: free galactose blocks lectin aggregation by galactose cage Co4Gal ([…] against Co8Gal)
Type: binding

Jacalin, sequence (P18670 whole entry): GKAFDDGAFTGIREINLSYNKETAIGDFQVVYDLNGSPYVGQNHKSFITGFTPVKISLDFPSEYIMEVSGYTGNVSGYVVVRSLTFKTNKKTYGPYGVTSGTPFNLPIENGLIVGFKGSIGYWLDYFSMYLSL
Jacalin, sequence (P18671 whole entry partner): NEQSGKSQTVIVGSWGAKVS

IC50: 30 mM
Compound: OC[C@H]1OC(O)[C@H](O)[C@@H](O)[C@H]1O (stereo partly drawn) [D-galactose]
